From US10898592B2, “Compositions and methods for reducing the risk of post-imaging pancreatitis” (University Of Pittsburgh—Of The Commonwealth System Of …, priority 2015, dated 2021)
Entries after “also recorded” stand apart in the source; their conditions may differ.

Assays:
AR42J cells = assay: Ca^2+ signals (Fluo-4AM) in AR42J cells; format: cell-based; settings: U73122 5 μM; 2-APB 100 μM
[1] = tested on: calcineurin (NFAT-luciferase); assay: NFAT-luciferase activity assay (calcineurin activation), mouse primary acinar cells; format: cell-based; settings: 2-APB 100 μM, 30 min pre-treatment; RC 9%
Description: (§1) NFAT-luciferase activity assay. Acinar cells were infected with Ad-NFAT-luciferase following a previously described procedure^10,15,16. The construct includes a luciferase gene placed downstream of an IL-4 promoter which contains nine tandem NFAT binding sites^10. Acinar cells were incubated with the NFAT-driven luciferase adenovirus for 1.5 hr prior to stimulation. All of the stated inhibitors were added for 30 min prior to stimulation with RC. NFAT-luciferase was measured using the luciferase assay system. Briefly, cells were spun at 1,000 rpm for 5 min, washed with PBS, and lysed using reporter lysis 5× buffer (Promega #E397A, Madison, Wis.). Samples were vortexed and spun at 12,000 g for 2 min. Supernatant was plated, and luminescence was measured using a Synergy H1 plate reader (BioTek, Winooski, Vt.) and normalized to total protein.

[2] = tested on: calcineurin (NFAT-luciferase); assay: NFAT-luciferase activity assay, AR42J cells; format: cell-based; settings: for effect on RC (6%)-induced NFAT-luciferase activity: pretreatment, FK506 24 μM, CsA 16 μM, U73122 5 μM, 2-APB 100 μM, BAPTA 64 μM
Description: as §1

NF-κB = assay: NF-κB-luciferase activity assay, AR42J cells; format: cell-based; settings: for effect on RC-induced NF-κB-luciferase levels: U73122 5 μM, 2-APB 100 μM, BAPTA 64 μM
Description: NF-κB-luciferase activity assay. AR42J cells were differentiated towards an acinar phenotype by administering dexamethasone (100 nM) for 48-72 hr^17. AR42J cells were infected with Ad-NF-κB luciferase 16 h prior to stimulation using a previously described method^12. Following a wash with DMEM/F12 medium, acinar cells were evenly distributed in a 48-well plate and incubated for 30 min at 37° C. They were incubated with RC at varying concentrations and times. NF-κB-luciferase was measured using a commercially available luciferase assay (Promega, Madison, Wis.). Briefly, cells were spun at 1,000 rpm for 5 min, washed with PBS, and lysed using reporter lysis 5× buffer (Promega, catalog no. E397A). Samples were vortexed and spun at 12,000×g for 2 min. The supernatant was plated, and luminescence was measured using a Synergy H1 plate reader (BioTek, Winooski, Vt.) and normalized to total […].

primary acinar cells = assay: Cell necrosis assay (propidium iodide uptake), primary acinar cells; format: cell-based, mouse; settings: for effect on RC (12%)-induced acinar cell injury (PI uptake): 6 hr incubation, U73122 5 μM, 2-APB 100 μM, BAPTA 64 μM, IKK-2 20 μM, FK506 24 μM, CsA 16 μM
Description: Cell necrosis assay. Acinar cells were incubated in a 48-well plate with 50 μg/ml of propidium iodide (PI) for 30 min prior to addition of RC. Fluorescence was measured at 536 nm excitation and 617 nm emission wavelengths over time a time course of up to 6 hr. Fluorescence was measured after cell lysis with 0.5% Triton-X 100 was used to normalize the results relative to total DNA.

[3] = high-affinity Ca^2+-sensing dye (Invitrogen); cited from earlier work
pancreas = assay: Intra-ductal RC infusion (PEP model) in mice: histological severity, serum amylase; format: in vivo, mouse
Description: Intra-ductal RC infusion in mice. The procedure for retrograde infusion into the CBD and pancreatic duct has been described before^14. Briefly, Swiss Webster mice were anesthetized with isoflurane. A midline incision was made to reveal the abdominal cavity. The duodenum was flipped to reveal its distal side and held in place by ligatures. […] needle was inserted through the anti-mesenteric aspect of the duodenum to cannulate the CBD. A small bull dog clamp was applied to the distal CBD (near the duodenum) to prevent back flow of the infusate into the duodenal lumen and to hold the cannula in place. A larger bull dog clamp was applied to the proximal CBD (near the liver) to prevent infusion into the liver and thus to direct flow to the pancreatic duct. Total volumes of 50-100 μl of iohexol, iopamidol, or normal saline (NS) were infused at 10-20 μl per min for 5 min using a P33 perfusion pump (Harvard Apparatus, Holliston, Mass.). Upon completion of the infusion, the bull dog clamps were released. The exterior abdominal wound was closed using 7 mm wound clips, and a single injection of buprenorphine (0.075 mg/kg) was given immediately after the surgery. Mice recovered on a heating pad for 30 min after the procedure. They were given free access to food and water after the surgery. Pancreas tissue preparation, histological grading, and serum amylase. The pancreas, duodenum, and spleen were fixed at room temperature for 24 hr in 4% paraformaldehyde. Paraffin-embedded sections were stained with hematoxylin an eosin (HE) and graded using a 20× objective over 10 separate fields in a blinded fashion. Pancreas tissue was graded for edema, inflammatory infiltrate, and necrosis as described by Wildi et al.^67. Whole blood samples were centrifuged at 1500×g for 5 min at 4° C. Serum amylase was measured using a Phadebas kit (Amersham Pharmacia, Rochester N.Y.) as previously described^68.

[4] = tested on: mouse pancreatic acinar cells; assay: Ca^2+ signals (Fluo-4AM) in mouse pancreatic acinar cells; format: cell-based; settings: RC 25% and 33%
Description: Detection and analysis of cellular Ca^2+ signals from mouse and human acini. Acinar cells were loaded at room temperature with the high-affinity Ca^2+-sensing dye Fluo-4AM (Kd=300 nM; Invitrogen). Acinar cells were plated on acid-washed glass coverslips and then mounted on a perifusion chamber. Thereupon, they were stimulated at room temperature with varying concentrations of RC (17-50%) diluted in HEPES buffer. Carbachol (1 mM) was given at the end of each experiment to confirm that the cells were intact and could mobilize intracellular Ca^2+ stores. A Zeiss LSM710 laser scanning confocal microscope was used with a 20×, 1.4 numerical aperture objective. The dye was excited at 488 nm wavelength, and emission signals of >515 nm were collected every 2 sec. Fluorescence from individual acinar cells was recorded. Analysis of recordings was performed using ImageJ software (NIH, Bethesda, Md.), and mean fluorescence over time in each region was graphed.
Preparation of mouse pancreatic acini for Ca^2+ imaging. Groups of pancreatic acinar cells were isolated as previously described^26,69, with minor modifications. […]

pancreatic acinar cells = assay: ATP level measurements in pancreatic acinar cells; format: cell-based, mouse; settings: RC, concentration dependent
Description: ATP level measurements. Following isolation, pancreatic acinar cells were cultured in DMEM/F12 Medium (0.5 ml/well of a 48-well plate) at 37° C. water bath and treated with RC±FK506. Cells were collected at indicated time points and lysed in 100 μl lysis buffer (100 mM Tris pH 7.75, 4 mM EDTA). ATP levels were measured from 20 μl aliquots of acinar cell lysates using the ENLITEN luciferase/luciferin reagent (Promega catalog no. FF2021).

pancreatic NF-κB = assay: Imaging pancreatic NF-κB bioluminescence in vivo (AAV6-NF-κB-luciferase); set-up: species or system mouse; settings: RC-infused mice, 4 hr after surgery
Description: Imaging pancreatic NF-κB bioluminescence in vivo. An AAV6-NF-κB-luciferase reporter was constructed, expanded in HEK293 cells, and purified as previously described^18-20,39. A volume of 100 μl of virus (10^12 GCP/ml) was infused into the pancreaticobiliary duct at a rate of 10 μl/min using the same technique of RC infusion described above and recently published^21,39. After a 5-week recovery from the surgery, mice underwent PEP induction with or without FK506 treatment. At varying time points after the surgery, ranging from 2 to 36 hr, bioluminescence signals were obtained by first giving a subcutaneous injection of luciferin (150 μg/g body weight) in the scruff of the neck 15 min before the start of imaging. The mice were briefly anesthetized with isoflurane and placed in the supine position in a bioluminescent imaging chamber (IVIS spectrum imager; Perkin Elmer, Waltham, Mass.) for 3-10 min. Average pixel intensity was measured from a pancreatic region of interest (in the upper abdomen). Raw time points from each mouse were normalized to its individual baseline intensity at time zero.

[5] = tested on: IL-6, GADD45B, IL-1β gene expression; assay: Real-time PCR of pancreatic head (IL-6, GADD45B, IL-1β); format: in vivo, mouse; settings: RC exposure
Description: RNA extraction from whole pancreas and real-time PCR. Total RNA from the pancreatic head was obtained by homogenizing 40 mg of tissue in 2 ml of TRIzol reagent (Life Technologies; Grand Island N.Y.) at 4° C. and immediately flash frozen in liquid nitrogen. Samples were thawed on ice and centrifuged at 12,000×g for 10 min at 4° C. The supernatant was diluted with 200 μl of chloroform and centrifuged at 12,000×g for 15 min at 4° C. The upper aqueous phase was treated with 0.5 ml of isopropanol and centrifuged at 10,000×g for 10 min at 4° C. The pellet was resuspended with 150 μl of 75% ethanol and centrifuged at 7500×g for 5 min at 4° C. The pellet was air-dried and dissolved in 100 μl of nuclease-free water. Total RNA samples were used to generate cDNA using the iScript Advanced cDNA synthesis Kit (Bio Rad; Hercules, Calif.).
Quantitative real-time PCR (rtPCR) was performed to determine the relative expression of the cytokines IL-6 and IL-1β as well as the cell growth arrest and DNA-damage inducible gene GADD45B. The primer pairs for each as well as a GAPDH control were obtained as part of the PrimePCR-PreAMP SYBR Green Assay (Bio Rad; unique assay ID #qMmuCEP0054186, qMmuCID0005641, qMmuCEP0039581). rtPCR reactions were carried out in 20 μl volume reactions using the SsoAdvanced Universal Supermix SYBR Green system (Bio Rad). The reactions contained 1× SsoAdvanced Universal SYBR Green Supermix, 300 nM forward Primer, 300 nM reverse primer and 100 ng cDNA. rtPCR conditions were 95° C. for 10 sec and 60° C. for 30 sec for 35 cycles on a Bio Rad CFX96 Touch thermocycler (Bio Rad). Results for the expression of mRNA were normalized to expression of 18S rRNA and are represented relative to expression levels for each of the control groups.

NRK-52E renal cell line = settings: long incubation (4 hr); cited from earlier work

NCCOB(c1ccccc1)c1ccccc1 [2-APB]
effect on RC (25%)-induced Ca^2+ signals (AR42J cells): prevented | reduction of RC-induced NFAT-luciferase rise [1]: 47% | effect on RC (6%)-induced NFAT-luciferase activity [2]: prevented | effect on RC-induced NF-κB-luciferase levels (NF-κB): reduced | effect on RC (12%)-induced acinar cell injury (PI uptake) (primary acinar cells): prevented

CC(=O)OCOC(=O)CN(CC(=O)OCOC(C)=O)c1ccc(C)cc1OCCOc1cc(-c2c3cc(F)c(=O)cc-3oc3cc(OCOC(C)=O)c(F)cc23)ccc1N(CC(=O)OCOC(C)=O)CC(=O)OCOC(C)=O [Fluo-4AM]
Kd [3]: 300 nM

CCCCCCCCCCC[C@@H](C[C@@H]1OC(=O)[C@H]1CCCCCC)OC(=O)[C@H](CC(C)C)NC=O [Orlistat]
effect on activation of NF-κB with RC (NF-κB; Orlistat pretreatment (50-100 μM), RC 16%): did not significantly reduce

CC(=O)N(CC(O)CO)c1c(I)c(C(=O)NCC(O)CO)c(I)c(C(=O)NCC(O)CO)c1I (centres unmarked) [RC, iohexol]
severity of pancreatitis at pH 6 compared to pH 7 (pancreas; RC buffered with 10 mM HEPES, pH clamped at 6): no increased severity of pancreatitis | increase in histological severity above the intra-ductal NS sham control (pancreas; intraductal RC at doubled rate and volume, pancreatic head 24 hr after procedure): 59% | serum amylase increase (pancreas; intraductal RC, 6 hr post-procedure): at least 50% | amplitude of Ca^2+ signal above baseline [4]: 400% | propidium iodide (PI) uptake (primary acinar cells; RC exposure for 6 hr): concentration-dependent increase | ATP levels (pancreatic acinar cells): depletion of ATP levels | peak in pancreatic NF-κB luciferase compared to NS sham (pancreatic NF-κB): 13 fold | expression of GADD45B [5]: upregulated | expression of IL-1β [5]: upregulated | expression of IL-6 [5]: upregulated

COc1ccc2c(c1)CC[C@@H]1[C@@H]2CC[C@]2(C)[C@@H](NCCCCCCN3C(=O)C=CC3=O)CC[C@@H]12 [U73122]
effect on RC (25%)-induced Ca^2+ signals (AR42J cells): prevented | effect on RC (6%)-induced NFAT-luciferase activity [2]: prevented | effect on RC-induced NF-κB-luciferase levels (NF-κB): reduced | effect on RC (12%)-induced acinar cell injury (PI uptake) (primary acinar cells): prevented

C[C@H](O)C(=O)Nc1c(I)c(C(=O)NC(CO)CO)c(I)c(C(=O)NC(CO)CO)c1I [iopamidol]
induction of pancreatitis by intraductal infusion (histological severity, serum amylase, serum IL-6) (pancreas; iopamidol (Isovue 300) compared with iohexol, 24 hr): similar; also recorded: induces pancreatitis | calcineurin/NFAT activation on exposure to radiocontrast ([2]; AR42J cells): induced NFAT activation in a concentration-dependent manner | NF-κB-luciferase on exposure to radiocontrast (NF-κB; AR42J cells, 6 hr): induced NF-κB activation in a concentration-dependent manner

O=C(NCC(O)CO)c1c(I)c(C(=O)NCC(O)CO)c(I)c(N(CCO)C(=O)CO)c1I (centres unmarked) [ioversol]
baseline cytosolic Ca^2+ levels (NRK-52E renal cell line): caused a slow, globalized increase in baseline cytosolic Ca^2+ levels

OC[C@@H](O)[C@@H](O)[C@H](O)[C@H](O)CO [mannitol]
NF-κB activation under hyperosmolar control (NF-κB; mannitol at concentrations equimolar to RC): failed to cause an increase
